# PubChem BioAssay (NCI)
#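 Test compounds were applied to cells in 96-well plates for 48 hours at 5 doses. Abbreviation: GI50, concentration required for 50% inhibition of growth. Definition used: TGI = concentration required for complete inhibition of growth.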
# Tests used:
# Experiment in all cases: NCI tumour cell line growth inhibition, 48 h
# [1] = test system: A549 NSCLC
# [2] = test system: SF-295 CNS
# [3] = test system: HCC-2998 colon
# [4] = test system: T-47D breast
# [5] = test system: SW-620 colon
# [6] = test system: SNB-75 CNS
# [7] = test system: NCI/ADR-RES ovarian
# [8] = test system: MDA-MB-231 breast
# [9] = test system: NCI-H226 lung
# [10] = test system: SR leukemia
# [11] = test system: NCI-H460 lung
# [12] = test system: PC-3 prostate
# [13] = test system: HL-60(TB) leukemia
# [14] = test system: U251 CNS
# [15] = test system: MOLT-4 leukemia
# [16] = test system: HOP-62 NSCLC
# [17] = test system: UO-31 renal
# [18] = test system: LOX IMVI melanoma
# [19] = test system: MDA-MB-435
# [20] = test system: ACHN renal
# [21] = test system: M14 melanoma
# [22] = test system: SK-MEL-28 melanoma
# [23] = test system: HCT-116 colon
# [24] = test system: SK-MEL-5 melanoma
# [25] = test system: NCI-H23 lung
# [26] = test system: TK-10 renal
# [27] = test system: SN12C renal
# [28] = test system: CCRF-CEM leukemia
# [29] = test system: HS 578T breast
# [30] = test system: NCI-H522 lung
# [31] = test system: K-562 leukemia
# [32] = test system: SF-268 CNS
# [33] = test system: MALME-3M melanoma
# [34] = test system: SK-MEL-2 melanoma
# [35] = test system: CAKI-1 renal
# [36] = test system: UACC-257 melanoma
# [37] = test system: SNB-19 CNS
# [38] = test system: RXF 393 renal
# [39] = test system: OVCAR-8 ovarian
# [40] = test system: OVCAR-5 ovarian
# [41] = test system: KM12 colon
# [42] = test system: 786-0 renal
# [43] = test system: EKVX NSCLC
# [44] = test system: SK-OV-3 ovarian
# [45] = test system: MCF7 breast
# [46] = test system: OVCAR-4 ovarian
# [47] = test system: COLO 205 colon
# [48] = test system: HCT-15 colon
# [49] = test system: UACC-62 melanoma
# [50] = test system: HOP-92 NSCLC
# [51] = test system: SF-539 CNS
# [52] = test system: IGROV1 ovarian
# [53] = test system: HT29 colon
# [54] = test system: OVCAR-3 ovarian
# [55] = test system: A498 renal
# [56] = test system: BT-549 breast
# [57] = test system: DU-145 prostate
# [58] = test system: RPMI-8226 leukemia
structure (smiles),measurement,setting,value
Nc1nc2ccc([C@@H]3Nc4ccc5[nH]ncc5c4[C@H]4[C@H]5CCC(C5)[C@H]43)cc2s1,GI50,[1],0.994 µM
same,TGI,[1],3.98 µM
same,GI50,[2],0.648 µM
same,TGI,[2],5.95 µM
same,GI50,[3],1.75 µM
same,TGI,[3],3.76 µM
same,GI50,[4],0.79 µM
same,TGI,[4],6.16 µM
same,GI50,[5],0.474 µM
same,TGI,[5],1.87 µM
same,GI50,[6],0.319 µM
same,TGI,[6],2.47 µM
same,GI50,[7],0.966 µM
same,TGI,[7],4 µM
same,GI50,[8],1.29 µM
same,TGI,[8],11.6 µM
same,GI50,[9],1.91 µM
same,TGI,[9],5.54 µM
same,GI50,[10],0.336 µM
same,TGI,[10],2.72 µM
same,GI50,[11],0.81 µM
same,TGI,[11],2.32 µM
same,GI50,[12],1.04 µM
same,TGI,[12],3.2 µM
same,GI50,[13],0.345 µM
same,TGI,[13],1.37 µM
same,GI50,[14],1.18 µM
same,TGI,[14],11.5 µM
same,GI50,[15],0.632 µM
same,TGI,[15],3.05 µM
same,GI50,[16],1.14 µM
same,TGI,[16],2.9 µM
same,GI50,[17],1.78 µM
same,TGI,[17],12.2 µM
same,GI50,[18],0.935 µM
same,TGI,[18],2.54 µM
same,GI50,[19],0.293 µM
same,TGI,[19],1.03 µM
same,GI50,[20],1.37 µM
same,TGI,[20],9.57 µM
same,GI50,[21],0.654 µM
same,TGI,[21],2.62 µM
same,GI50,[22],1.36 µM
same,TGI,[22],4.29 µM
same,GI50,[23],0.488 µM
same,TGI,[23],1.84 µM
same,GI50,[24],1.66 µM
same,TGI,[24],13 µM
same,GI50,[25],1.58 µM
same,TGI,[25],3.72 µM
same,GI50,[26],2.73 µM
same,TGI,[26],8.98 µM
same,GI50,[27],1.53 µM
same,TGI,[27],4.12 µM
same,GI50,[28],0.507 µM
same,TGI,[28],19 µM
same,GI50,[29],1.39 µM
same,TGI,[29],4.4 µM
same,GI50,[30],1.38 µM
same,TGI,[30],3.4 µM
same,GI50,[31],0.328 µM
same,TGI,[31],5.87 µM
same,GI50,[32],1.49 µM
same,TGI,[32],4.52 µM
same,GI50,[33],0.968 µM
same,TGI,[33],2.6 µM
same,GI50,[34],1.82 µM
same,TGI,[34],6.79 µM
same,GI50,[35],0.791 µM
same,TGI,[35],3.34 µM
same,GI50,[36],2.12 µM
same,TGI,[36],5.46 µM
same,GI50,[37],1.3 µM
same,TGI,[37],11 µM
same,GI50,[38],1.47 µM
same,TGI,[38],7.56 µM
same,GI50,[39],2.35 µM
same,TGI,[39],16.7 µM
same,GI50,[40],1.83 µM
same,TGI,[40],4.41 µM
same,GI50,[41],0.838 µM
same,TGI,[41],2.3 µM
same,GI50,[42],1.4 µM
same,TGI,[42],10 µM
same,GI50,[43],1.47 µM
same,TGI,[43],4.92 µM
same,GI50,[44],1.73 µM
same,TGI,[44],3.63 µM
same,GI50,[45],0.412 µM
same,TGI,[45],1.73 µM
same,GI50,[46],2.2 µM
same,TGI,[46],6.05 µM
same,GI50,[47],1.08 µM
same,TGI,[47],2.92 µM
same,GI50,[48],0.505 µM
same,TGI,[48],2.64 µM
same,GI50,[49],1.51 µM
same,TGI,[49],3.05 µM
same,GI50,[50],1.67 µM
same,TGI,[50],11.8 µM
same,GI50,[51],0.812 µM
same,TGI,[51],2.88 µM
same,GI50,[52],1 µM
same,TGI,[52],9.84 µM
same,GI50,[53],0.435 µM
same,TGI,[53],11 µM
same,GI50,[54],0.366 µM
same,TGI,[54],1.25 µM
same,GI50,[55],0.288 µM
same,TGI,[55],1.78 µM
same,GI50,[56],1.25 µM
same,TGI,[56],5.25 µM
same,GI50,[57],1.63 µM
same,TGI,[57],5.78 µM
same,GI50,[58],1.39 µM
same,TGI,[58],5.3 µM
